Data published in US6978724B2, “Copper complexes and their use as wood preservatives” (E.I. Du Pont de Nemours and Company, priority 2002, dated 2005).

Assays:
[1] = test system: white, hairy fungus; experiment: Soil burial of pressure-imbibed SYP wooden stakes in flower pots, visual examination; settings: SYP stakes imbibed at 5000 ppm copper, 155 psi; about 3/4 buried in moist non-sterile soil, greenhouse at 78° C, after 5 months
Experimental: Two pre-weighed SYP wooden stakes (¾″×¾″×12″ or ¾″×1½″×12″) were loaded into a hastaloy pressure vessel and covered with imbibement solution at room temperature. The imbibement solution was prepared by diluting the preparations given in Example 1 with water to a copper concentration of 5000 ppm. The vessel was evacuated for 5 min and then pressured with nitrogen for 1 h at 155 psi at which time the pressure was removed. The stakes were then removed from the vessel and allowed to drip dry. Weights were then recorded to insure that the wood was penetrated with the imbibement solution. The stakes were then dried overnight in a convection oven at 55° C. Weights of the dried stakes were then recorded.
These treated stakes along with control (untreated) stakes were labeled and buried in a flower pot with about ¾ of the wood below the surface of non-sterile soil. The flower pots were kept moist in a greenhouse at […]. After 5 months, the stakes were visually examined.

[2] = test system: non-sterile soil; experiment: Ground burial exposure of treated newsprint and cardboard; settings: newsprint soaked 5 min in 5000 ppm copper solution; buried in moist non-sterile garden soil 90 days, 18 to 24° C
Excerpt: Cellulosic materials, including newsprint and cardboard samples, treated with copper amidoxime or hydroxamic acid complexes are preserved after being buried in non-sterile soil for 90 days. (Procedure adapted from: Hussey, S. W., More Brownie Girl Scout Try-Its, Girl Scouts of the U.S.A., 81 (1989).) In the same soil, untreated newsprint and cardboard samples were consumed microbially resulting in disintegration of the materials. Given that the composition of mechanically pulped newsprint closely resembles that of coniferous trees (Table 1, U.S. Pat. No. 5,582,682), this method serves as a rapid test for screening for preservatives of wood.
The imbibement solution was prepared by diluting the preparations given in Example 1 with water to a copper concentration of 5000 ppm. Samples of newsprint were soaked in solutions of the copper complexes for 5 min. The paper was removed from the imbibing solution, blotted nearly dry, air-dried overnight, and then placed in sacks made from nylon stockings. The sacks were labeled and closed with nylon twist-ties. Control samples of untreated newsprint were placed in similar nylon sacks. The sacks of treated and untreated newsprint were buried in clay pots containing moist, non-sterile garden soil for 90 days and maintained at approximately 18 to 24° C. After 90 days the sacks were unburied, opened, and the contents examined for decomposition. […]

Substance: Copper Complex of the Amidoxime of Sorbitol [Example 1]
- visual examination of stakes for covering of white, hairy fungus below the soil surface [1]: showed no such covering
- decomposition of treated newsprint [2]: still intact and the printing was still legible
